Experimental data as given in patent US20260217667A1, “AMYLOID TARGETING AGENTS” (Amydis, Inc., priority 2023, published 2026).

Legend:
α-synuclein (ASYN) = α-synuclein (ASYN) (Homo sapiens, UniProt P37840); test: Fluorescence emission spectra of compounds with and without aggregated α-synuclein; type: binding
Description: (§1) Emission spectra for compound 1 and compound 1a were collected after incubation of the compounds with and without aggregated amyloidogenic protein at specific excitation wavelengths (450 nm and 488 nm) employed in standard ocular imaging equipment. Amyloidogenic proteins (synthetic aggregated amyloid beta (Aβ), α-synuclein (ASYN), transthyretin (TTR), TAR DNA-binding protein 43 (TDP43), and phosphorylated tau (TAU)) were aggregated in vitro using the following procedure. The amyloidogenic protein was removed from the freezer and allowed to warm to room temperature, then 1 mg of amyloidogenic protein was dissolved in 215 μL of ddH2O for about 10-20 mins at room temperature. To the resulting solution, 2 mL of ddH2O was added to provide a 100 μM stock solution. A 100 μL aliquot was sampled and frozen (non-aggregated sample). The tubes were placed in a thermoshaker at 350 rpm for 3 days. Care was taken to avoid generating bubbles. Protein aggregation was confirmed by measuring binding to Thioflavin T (ThT). Aggregated protein was then portioned into 150 μL aliquots and stored at −80° C. The fluorescent emission spectra were measured as follows to determine binding of synthetic aggregated amyloid beta (Aβ), α-synuclein (ASYN), transthyretin (TTR), TAR DNA-binding protein 43 (TDP43), and phosphorylated tau (TAU) to test compounds described herein. The Shimadzu fluorimeter was turned on and allowed to warm up for ~60 minutes. The test compounds were then removed from the −20° C. freezer and were allowed to warm to room temperature. The 100 μM aggregated Aβ solution was then removed from the −80° C. freezer and also allowed to warm to room temperature. 250 μM solutions of each test compound in DMSO were then prepared. These were then used to prepare 4 μM solutions of each test compound, with and without 5 μM aggregated Aβ in 1×PBS, in triplicates. Using a cuvette, the fluorescent emission spectra were measured for each test compound+Aβ solution, employing a DMSO/PBS solution as a blank. Each sample was tested at an excitation of 450 nm and 488 nm. Fluorescent emission spectra were then collected for each 4 μM test compound solution alone. The resulting data were used to plot intensity vs. wavelength for each emission scan. The fold increase at maximum emission (compound+Aβ/compound) is calculated for each test compound.

[1] = target: TAR DNA-binding protein 43 (TDP43) (Homo sapiens, UniProt Q13148); test: Fluorescence emission spectra of compounds with and without aggregated TDP43
Description: as §1

transthyretin (TTR) = transthyretin (TTR) (Homo sapiens, UniProt P02766); test: Fluorescence emission spectra of compounds with and without aggregated transthyretin; type: binding
Description: as §1

[2] = test system: amyloidogenic aggregates (Aβ, ASYN, TTR, TDP43, 3RTau, and 4RTau); test: In vitro binding to amyloidogenic aggregates, summary statement; conditions: excitation 450 nm or 488 nm
Description: Amyloidogenic proteins (synthetic aggregated amyloid beta (Aβ), α-synuclein (ASYN), transthyretin (TTR), TAR DNA-binding protein 43 (TDP43), and phosphorylated tau (TAU)) were aggregated in vitro using the following procedure. The amyloidogenic protein was removed from the freezer and allowed to warm to room temperature, then 1 mg of amyloidogenic protein was dissolved in 215 μL of ddH2O for about 10-20 mins at room temperature. To the resulting solution, 2 mL of ddH2O was added to provide a 100 μM stock solution. A 100 μL aliquot was sampled and frozen (non-aggregated sample). The tubes were placed in a thermoshaker at 350 rpm for 3 days. Care was taken to avoid generating bubbles. Protein aggregation was confirmed by measuring binding to Thioflavin T (ThT). Aggregated protein was then portioned into 150 μL aliquots and stored at −80° C.
The fluorescent emission spectra were measured as follows to determine binding of synthetic aggregated amyloid beta (Aβ), α-synuclein (ASYN), transthyretin (TTR), TAR DNA-binding protein 43 (TDP43), and phosphorylated tau (TAU) to test compounds described herein. […] Using a cuvette, the fluorescent emission spectra were measured for each test compound+Aβ solution, employing a DMSO/PBS solution as a blank. […] The fold increase at maximum emission (compound+Aβ/compound) is calculated for each test compound. […]

4RTau = test: Fluorescence emission spectra of compounds with and without aggregated 4RTau; type: binding
Description: as §1

3RTau = test: Fluorescence emission spectra of compounds with and without aggregated 3RTau; type: binding
Description: as §1

[3] = target: T1, synthetic aggregated amyloid beta (Aβ) (Homo sapiens, UniProt P05067); test: Fluorescence emission spectra of compounds with and without aggregated amyloid beta; type: binding; conditions: for Fold Increase at maximum emission (compound+Aβ/compound): 4 μM compound, 5 μM aggregated Aβ in 1×PBS; for Peak emission: aggregated Aβ
T1 construct: synthetic aggregated amyloid beta (Aβ)
Description: as §1

T1 sequence (P05067 672-713 limits assumed): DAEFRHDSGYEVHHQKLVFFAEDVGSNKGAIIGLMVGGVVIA
TAR DNA-binding protein 43 (TDP43), sequence (Q13148 whole entry): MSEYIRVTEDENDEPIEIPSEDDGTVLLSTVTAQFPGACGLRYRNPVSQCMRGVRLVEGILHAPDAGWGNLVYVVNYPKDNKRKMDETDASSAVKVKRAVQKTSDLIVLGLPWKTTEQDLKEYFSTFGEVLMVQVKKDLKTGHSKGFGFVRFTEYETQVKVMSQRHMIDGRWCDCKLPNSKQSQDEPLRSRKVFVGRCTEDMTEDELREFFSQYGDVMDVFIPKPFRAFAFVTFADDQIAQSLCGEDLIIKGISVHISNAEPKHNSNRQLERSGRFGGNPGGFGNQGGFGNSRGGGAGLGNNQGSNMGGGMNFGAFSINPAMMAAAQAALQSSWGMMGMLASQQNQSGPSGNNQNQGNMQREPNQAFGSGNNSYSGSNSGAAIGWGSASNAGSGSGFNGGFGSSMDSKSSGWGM

Fold Increase at maximum emission (α-synuclein (ASYN); excitation 450 nm)	Peak emission (α-synuclein (ASYN); excitation 450 nm)	Fold Increase at maximum emission (α-synuclein (ASYN); excitation 488 nm)	Peak emission (α-synuclein (ASYN); excitation 488 nm)	Fold Increase at maximum emission ([1]; excitation 450 nm)	Peak emission ([1]; excitation 450 nm)	Fold Increase at maximum emission ([1]; excitation 488 nm)	Peak emission ([1]; excitation 488 nm)	Fold Increase at maximum emission (transthyretin (TTR); excitation 450 nm)	Peak emission (transthyretin (TTR); excitation 450 nm)	Fold Increase at maximum emission (transthyretin (TTR); excitation 488 nm)	Peak emission (transthyretin (TTR); excitation 488 nm)	Binding to all amyloidogenic aggregates tested [2]	Fold Increase at maximum emission (compound+Aβ/compound) ([3]; excitation 450 nm)	Peak emission ([3]; excitation 450 nm)	Fold Increase at maximum emission (compound+Aβ/compound) ([3]; excitation 488 nm)	SMILES	Fold Increase at maximum emission (4RTau; excitation 450 nm)	Fold Increase at maximum emission (4RTau; excitation 488 nm)	Fold Increase at maximum emission (3RTau; excitation 450 nm)	Fold Increase at maximum emission (3RTau; excitation 488 nm)	further results
120.92	554	190.64	554	23.23	551	20.40	551	4.67	550	7.35	557	successfully bound	9.48	554	19.60	N#C/C(=C\c1ccc2cc(N3CCCCC3)ccc2c1)C(=O)CCC(O)CO (stereo not drawn) [Compound 1a, (E)-6,7-dihydroxy-3-oxo-2-((6-(piperidin-1-yl)naphthalen-2-yl)methylene)heptanenitrile]	22.19	22.48	84.37	103.65	Peak emission ([3]; excitation 488 nm): 559
105.50	552	109.97	557	15.33	547	18.32	556	5.18	553	7.21	560	successfully bound	10.16	559	9.11	N#C/C(=C\c1ccc2cc(N3CCCCC3)ccc2c1)C(=O)CCCOCCOCCO [Compound 1, (E)-6-(2-(2-hydroxyethoxy)ethoxy)-3-oxo-2-((6-(piperidin-1-yl)naphthalen-2-yl)methylene)hexanenitrile]	14.35	29.25	68.04	69.31	Peak emission ([3]; excitation 488 nm): 556
